Measurements: patent US10562912B2 (C&C Research Laboratories, priority 2013, dated 2020)

Assays:
Type in all cases: cell-based
STAT3 = target: T1, STAT3 (Homo sapiens, UniProt P40763); experiment: STAT3 reporter gene assay (luciferase), LNCaP stable cell line (pSTAT3-TA-luc), IL-6 stimulation
T1 construct: plasmid pSTAT3-TA-luc), which contains a stably operating STAT3 promoter; endogenous in cells
Outline: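 LNCaP cells stably carrying pSTAT3-TA-luc, in RPMI1640 with 3% DCC-FBS, were treated with compound and then stimulated with 10 ng/mL IL-6 for 24–48 h at 37 °C. Luciferase activity was measured in lysates. A parallel plate measured viability by CellTiter-Glo, with stimulated 0.1% DMSO wells as the positive control.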

BT-549 = experiment: Cell growth inhibition assay, breast cancer cell line BT-549; settings: Homo sapiens, BT-549 breast cancer cell line
Experimental: (§1) The inhibitory effects of the compounds of the present invention against the growth of cancer cells were evaluated as shown below. The cancer cell lines including stomach cancer cell line (AGS), breast cancer cell lines (MDA-MB-231, MDA-MB-468, and BT-549), prostate cancer cell lines (LNCaP and DU-145), colon cancer cell line (HCT116), ovarian cancer cell line (SW626), liver cancer cell line (Hep3B), kidney cancer cell line (ACHN), lung cancer cell line (NCI-H23) and blood cancer cell lines (HEL92.1.7 and U266) were cultured under the protocol provided by each supplier. A medium supplemented with 10 ng/mL of IL-6 was used for LNCaP, a prostate cancer cell line, when treated with a drug. Each type of cells to be used in experiments were sub-cultured in a 96-well plate by counting the exact number of cells using Tali™ Image-based Cytometer (Life Technologies). In a 96-well plate, AGS, HCT116, and DU-145 were employed with 3,000 cells/well; NCI-H23, SW626, Hep3B, ACHN, BT-549, MDA-MB-231, HEL92.1.7, and U266 were employed with 5,000 cells/well; and LNCaP and MDA-MB-468 were employed with 10,000 cells/well. The cells were treated with the compounds listed in Examples which were diluted in various concentrations. Upon completion of the compounds treatment, AGS, HCT116, SW626, DU145, NCI-H23, Hep3B, ACHN, BT-549, LNCaP, HEL92.1.7, and U266 cells were cultured at 37° C. under 5% CO2 for from 72 to 96 hours, and MDA-MB-231 and MDA-MB-468 cells were cultured at 37° C. in air for from 72 to 96 hours. Subsequently, the cells were observed under microscope and drug precipitation and particular findings were investigated and recorded. And then, the 96-well plate was placed at room temperature for 30 minutes, added with 20 μL/well of CellTiter-Glo solution (Cat No. G7573, Promega) and shaken for 10 minutes, followed by being subjected to the measurement using PHERAstar™ microplate reader (BMG LABTECH) according to the supplier's general luminometer protocol. Wells where only culture liquid added without cell plating were used as a negative control, whereas wells where culture liquid containing 0.1% DMSO instead of the compounds listed in Examples were used as a positive control.

LNCaP = experiment: Cell growth inhibition assay, prostate cancer cell line LNCaP (medium with 10 ng/mL IL-6); settings: Homo sapiens, medium supplemented with 10 ng/mL of IL-6, 10,000 cells/well
U266 = experiment: Cell growth inhibition assay, blood cancer cell line U266; settings: Homo sapiens, U-266 blood cancer cell line
Experimental: as §1

HEL92.1.7 = experiment: Cell growth inhibition assay, blood cancer cell line HEL92.1.7; settings: Homo sapiens, HEL 92.1.7, HEL92.1.7 blood cancer cell line
Outline: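 Cells were seeded at 3,000/well (HCT116, DU-145) or 5,000/well (SW626 and the others) and exposed to serial compound dilutions for 72 to 96 h at 37 °C under 5% CO2. Viability was read as CellTiter-Glo luminescence against 0.1% DMSO and cell-free wells.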

NCI-H23 = experiment: Cell growth inhibition assay, lung cancer cell line NCI-H23; settings: Homo sapiens
Experimental: as §1, with “Wells where only culture liquid added without cell plating were used as a negative control, whereas wells where culture liquid containing 0.1% DMSO instead of the compounds listed in Examples were used as a positive control.” left out

ACHN = experiment: Cell growth inhibition assay, kidney cancer cell line ACHN; settings: Homo sapiens
Experimental: as §1, with “Wells where only culture liquid added without cell plating were used as a negative control, whereas wells where culture liquid containing 0.1% DMSO instead of the compounds listed in Examples were used as a positive control.” left out

HCT116 = experiment: Cell growth inhibition assay, colon cancer cell line HCT116; settings: Homo sapiens, HCT-116 colon cancer cell line
Experimental: as §1, with “Wells where only culture liquid added without cell plating were used as a negative control, whereas wells where culture liquid containing 0.1% DMSO instead of the compounds listed in Examples were used as a positive control.” left out

DU-145 = experiment: Cell growth inhibition assay, prostate cancer cell line DU-145; settings: Homo sapiens, DU-145 prostate cancer cell line
Outline: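 Cancer cells, counted and seeded at 3,000 (DU-145, HCT116) or 5,000 (SW626) cells/well, received graded compound concentrations. Plates incubated 72–96 h at 37° C. with 5% CO2 were then assayed with CellTiter-Glo.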

SW626 = experiment: Cell growth inhibition assay, ovarian cancer cell line SW626; settings: Homo sapiens
Experimental: as §1, with “Wells where only culture liquid added without cell plating were used as a negative control, whereas wells where culture liquid containing 0.1% DMSO instead of the compounds listed in Examples were used as a positive control.” left out

MDA-MB-468 = experiment: Cell growth inhibition assay, breast cancer cell line MDA-MB-468; settings: Homo sapiens, MDA-MB-468 breast cancer cell line
Experimental: as §1

AGS = experiment: Cell growth inhibition assay, stomach cancer cell line AGS; settings: Homo sapiens; AGS stomach cancer cell line, 3,000 cells/well
Hep3B = experiment: Cell growth inhibition assay, liver cancer cell line Hep3B; settings: Homo sapiens
Experimental: as §1

MDA-MB-231 = experiment: Cell growth inhibition assay, breast cancer cell line MDA-MB-231; settings: Homo sapiens; MDA-MB-231 breast cancer cell line, 5,000 cells/well
Raji = experiment: Cell growth inhibition assay, cell line Raji; settings: Homo sapiens, Raji cells
C-33A = experiment: Cell growth inhibition assay, cell line C-33A; settings: Homo sapiens, C-33A cells
HCC1500 = experiment: Cell growth inhibition assay, cell line HCC1500; settings: HCC1500 cells
MDA-MB-361 = experiment: Cell growth inhibition assay, cell line MDA-MB-361; settings: Homo sapiens, MDA-MB-361 cells
SW1417 = experiment: Cell growth inhibition assay, cell line SW1417; settings: Homo sapiens, SW1417 cells
NCI-H661 = experiment: Cell growth inhibition assay, cell line NCI-H661; settings: Homo sapiens, NCI-H661 cells
IM-9 = experiment: Cell growth inhibition assay, cell line IM-9; settings: Homo sapiens, IM-9 cells
NCI-H508 = experiment: Cell growth inhibition assay, cell line NCI-H508; settings: Homo sapiens, NCI-H508 cells
NCI-H1650 = experiment: Cell growth inhibition assay, cell line NCI-H1650; settings: Homo sapiens, NCI-H1650 cells

T1 sequence (P40763 whole entry): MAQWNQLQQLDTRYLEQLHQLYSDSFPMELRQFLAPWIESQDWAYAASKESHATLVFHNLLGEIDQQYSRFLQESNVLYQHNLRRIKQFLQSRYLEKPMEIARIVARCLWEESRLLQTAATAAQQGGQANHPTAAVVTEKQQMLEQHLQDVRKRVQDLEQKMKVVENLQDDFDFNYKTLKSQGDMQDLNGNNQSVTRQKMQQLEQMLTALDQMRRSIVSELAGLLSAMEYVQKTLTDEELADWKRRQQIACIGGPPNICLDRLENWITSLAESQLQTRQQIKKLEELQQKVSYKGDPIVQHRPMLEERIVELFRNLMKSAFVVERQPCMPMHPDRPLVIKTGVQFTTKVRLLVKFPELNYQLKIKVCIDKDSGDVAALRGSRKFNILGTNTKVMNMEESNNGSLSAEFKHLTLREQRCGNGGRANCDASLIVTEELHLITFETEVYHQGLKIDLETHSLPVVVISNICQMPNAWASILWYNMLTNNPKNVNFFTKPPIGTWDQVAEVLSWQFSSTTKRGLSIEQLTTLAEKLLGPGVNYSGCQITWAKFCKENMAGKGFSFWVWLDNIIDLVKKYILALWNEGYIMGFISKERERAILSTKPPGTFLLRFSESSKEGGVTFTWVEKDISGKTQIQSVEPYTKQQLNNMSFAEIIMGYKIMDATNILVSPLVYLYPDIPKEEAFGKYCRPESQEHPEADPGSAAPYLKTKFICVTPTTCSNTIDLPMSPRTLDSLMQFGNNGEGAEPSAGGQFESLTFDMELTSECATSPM

| SMILES | IC50 (STAT3) [µM] | IC50 (BT-549) [µM] | IC50 (LNCaP) [µM] | IC50 (U266) [µM] | IC50 (HEL92.1.7) [µM] | IC50 (NCI-H23) [µM] | IC50 (ACHN) [µM] | IC50 (HCT116) [µM] | IC50 (DU-145) [µM] | IC50 (SW626) [µM] | IC50 (MDA-MB-468) [µM] | IC50 (Hep3B) [µM] | IC50 (MDA-MB-231) [µM] | also measured |
| --- | --- | --- | --- | --- | --- | --- | --- | --- | --- | --- | --- | --- | --- | --- |
| COc1cc(OC(F)(F)F)cc(C(C)(C)c2cc(Br)cc(NC(=O)c3cc4cc(NS(C)(=O)=O)ccc4s3)c2)c1 [Example 36, N-(3-bromo-5-(2-(3-methoxy-5-(trifluoromethoxy)phenyl)propan-2-yl)phenyl)-5-(methylsulfonamido)benzo[b]thiophene-2-carboxamide] | 0.027 | 0.043 | 0.21 | 0.22 | 0.27 | < 0.21 | < 0.00085 | < 0.072 | 0.006 | 0.013 | < 0.0076 | 2.2 | 0.005 | IC50 (AGS): 0.009 µM |
| COc1cc(OC(F)(F)F)cc(C(C)(C)c2cccc(NC(=O)c3cc4ccc(NS(C)(=O)=O)cc4[nH]3)c2)c1 [Example 9, N-(3-(2-(3-methoxy-5-(trifluoromethoxy)phenyl)propan-2-yl)phenyl)-6-(methylsulfonamido)-1H-indole-2-carboxamide] | 0.056 | – | 0.78 | 0.74 | 0.95 | – | – | – | 0.035 | – | – | – | 0.012 | – |
| COc1cc(OC(F)(F)F)cc(C(C)(C)c2cc(Br)cc(NC(=O)c3cc4ccc(NS(C)(=O)=O)cc4[nH]3)c2)c1 [Example 16, N-(3-bromo-5-(2-(3-methoxy-5-(trifluoromethoxy)phenyl)propan-2-yl)phenyl)-6-(methylsulfonamido)-1H-indole-2-carboxamide] | 0.112 | 0.26 | 0.48 | 0.25 | 0.14 | 0.3 | 0.004 | 0.31 | 0.024 | 0.066 | 0.02 | 2.1 | 0.025 | IC50 (AGS): 0.044 µM |
| COc1cc(NC(=O)c2cc3cc(NS(C)(=O)=O)ccc3s2)cc(C(C)(C)c2cc(OC)cc(OC(F)(F)F)c2)c1 [Example 34, N-(3-methoxy-5-(2-(3-methoxy-5-(trifluoromethoxy)phenyl)propan-2-yl)phenyl)-5-(methylsulfonamido)benzo[b]thiophene-2-carboxamide] | 0.051 | 3.4 | 0.24 | 0.29 | 0.2 | – | – | – | 0.023 | – | < 0.00064 | 0.028 | 0.007 | – |
| COc1cc(OC(F)(F)F)cc(C(C)(C)c2cc(Br)cc(NC(=O)c3cc4cnc(NS(C)(=O)=O)cc4[nH]3)c2)c1 [Example 98, N-(3-bromo-5-(2-(3-methoxy-5-(trifluoromethoxy)phenyl)propan-2-yl)phenyl)-6-(methylsulfonamido)-1H-pyrrolo[3,2-c]pyridine-2-carboxamide] | 0.098 | – | 0.76 | 0.56 | 0.86 | – | – | – | 0.31 | – | – | – | 0.59 | – |
| CC(C)Oc1cc(OC(F)(F)F)cc(C(C)(C)c2cc(Cl)cc(NC(=O)c3cc4cc(NS(C)(=O)=O)ccc4s3)c2)c1 [Example 68, N-(3-chloro-5-(2-(3-isopropoxy-5-(trifluoromethoxy)phenyl)propan-2-yl)phenyl)-5-(methylsulfonamido)benzo[b]thiophene-2-carboxamide] | 0.011 | – | 0.019 | 0.019 | 0.024 | – | – | – | 0.006 | – | – | – | 0.041 | – |
| CC(C)Oc1cc(OC(F)(F)F)cc(C(C)(C)c2cc(Br)cc(NC(=O)c3cc4cc(NS(C)(=O)=O)ccc4s3)c2)c1 [Example 49, N-(3-bromo-5-(2-(3-isopropoxy-5-(trifluoromethoxy)phenyl)propan-2-yl)phenyl)-5-(methylsulfonamido)benzo[b]thiophene-2-carboxamide] | 0.007 | – | 0.049 | 0.014 | 0.023 | – | – | – | 0.007 | – | – | – | 0.001 | – |
| CN(c1ccc2cc(C(=O)Nc3cccc(-c4ccccc4C(F)(F)F)c3)[nH]c2c1)S(C)(=O)=O [Example 346, 6-(N-methylmethylsulfonamido)-N-(2′-(trifluoromethyl)-[1,1′-biphenyl]-3-yl)-1H-indole-2-carboxamide] | 0.2 | 1 | 0.463 | – | 1.3 | 1.7 | 0.37 | 1.5 | 0.37 | 0.29 | 0.14 | 2.2 | 0.18 | IC50 (Raji): 0.57 µM; IC50 (C-33A): 0.3 µM; IC50 (HCC1500): 1.03 µM; IC50 (MDA-MB-361): 0.28 µM; IC50 (SW1417): 0.35 µM; IC50 (NCI-H661): 0.09 µM; IC50 (IM-9): 0.51 µM; IC50 (NCI-H508): 0.22 µM; IC50 (NCI-H1650): 0.62 µM |
| CCOc1cc(OC(F)(F)F)cc(C(C)(C)c2cc(Br)cc(NC(=O)c3cc4ccc(NS(C)(=O)=O)cc4[nH]3)c2)c1 [Example 22, N-(3-bromo-5-(2-(3-ethoxy-5-(trifluoromethoxy)phenyl)propan-2-yl)phenyl)-6-(methylsulfonamido)-1H-indole-2-carboxamide] | 0.11 | – | 0.29 | 0.13 | 0.13 | – | – | – | 0.048 | – | – | – | 0.007 | – |
